Experimental findings from article PMC3855667 (Biochemistry, 2013) are described below.

The structures appear in SMILES notation.

The assay addresses EmrD (Escherichia coli, UniProt P31442). Kind of assay: fluorescence anisotropy titration with EmrD. It is filed as binding. In general terms: Fluorescence polarisation rises when a labelled molecule tumbles more slowly, as on binding a larger partner.

Sequence of EmrD (P31442 whole entry): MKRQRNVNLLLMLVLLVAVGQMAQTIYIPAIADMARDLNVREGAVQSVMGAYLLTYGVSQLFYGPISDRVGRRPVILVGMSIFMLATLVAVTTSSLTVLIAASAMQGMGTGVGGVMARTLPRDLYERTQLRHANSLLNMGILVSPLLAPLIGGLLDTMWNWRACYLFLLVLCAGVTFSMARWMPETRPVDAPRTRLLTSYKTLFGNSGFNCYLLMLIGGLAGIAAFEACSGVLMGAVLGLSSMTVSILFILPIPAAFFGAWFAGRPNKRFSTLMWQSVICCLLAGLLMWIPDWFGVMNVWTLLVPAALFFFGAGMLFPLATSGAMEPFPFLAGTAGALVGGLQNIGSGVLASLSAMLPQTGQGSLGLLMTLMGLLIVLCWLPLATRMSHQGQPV

Consider `COc1cccc2c1C(=O)c1c(O)c3c(c(O)c1C2=O)C[C@@](O)(C(=O)CO)C[C@@H]3O[C@H]1C[C@H](N)[C@H](O)[C@H](C)O1` [doxorubicin], for which the Kd (as a rule, the concentration at which binding is half-saturated) is roughly 7 µM.
